Test results: ChEMBL document CHEMBL3621135 (ACS Med Chem Lett, 2015)
Activity calls are given as the source filed them. The calls are words filed in the database; no cut-off is given here.

Assays:
[1] = tested on: Rattus norvegicus; experiment: Reduction in red blood cell mass in rat at 15 mg/kg/day for 2 weeks; type: functional, organism-based
[2] = target: T1, Cytochrome P450 1A2 (Homo sapiens, UniProt P05177); experiment: Inhibition of CYP1A2 in human liver microsomes; type: ADME
T1 sequence (P05177 whole entry): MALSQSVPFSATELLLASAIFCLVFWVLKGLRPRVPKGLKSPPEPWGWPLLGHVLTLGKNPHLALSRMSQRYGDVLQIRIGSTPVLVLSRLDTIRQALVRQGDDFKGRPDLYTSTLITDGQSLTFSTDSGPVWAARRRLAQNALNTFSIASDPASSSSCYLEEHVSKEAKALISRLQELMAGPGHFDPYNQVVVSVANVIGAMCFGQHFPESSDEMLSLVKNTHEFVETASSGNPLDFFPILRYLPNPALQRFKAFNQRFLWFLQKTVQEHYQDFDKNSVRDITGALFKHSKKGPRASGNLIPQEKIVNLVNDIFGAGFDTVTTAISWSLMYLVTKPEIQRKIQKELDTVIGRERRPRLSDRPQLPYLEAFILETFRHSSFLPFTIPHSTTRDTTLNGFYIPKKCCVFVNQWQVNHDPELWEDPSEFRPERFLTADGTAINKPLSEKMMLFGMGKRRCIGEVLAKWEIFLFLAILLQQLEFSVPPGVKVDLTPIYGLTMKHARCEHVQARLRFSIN

[3] = target: T2, Tyrosine-protein kinase JAK3 (Homo sapiens, UniProt P52333); experiment: Binding affinity to JAK3 (unknown origin) assessed as dissociation constant
T2 sequence (P52333 whole entry): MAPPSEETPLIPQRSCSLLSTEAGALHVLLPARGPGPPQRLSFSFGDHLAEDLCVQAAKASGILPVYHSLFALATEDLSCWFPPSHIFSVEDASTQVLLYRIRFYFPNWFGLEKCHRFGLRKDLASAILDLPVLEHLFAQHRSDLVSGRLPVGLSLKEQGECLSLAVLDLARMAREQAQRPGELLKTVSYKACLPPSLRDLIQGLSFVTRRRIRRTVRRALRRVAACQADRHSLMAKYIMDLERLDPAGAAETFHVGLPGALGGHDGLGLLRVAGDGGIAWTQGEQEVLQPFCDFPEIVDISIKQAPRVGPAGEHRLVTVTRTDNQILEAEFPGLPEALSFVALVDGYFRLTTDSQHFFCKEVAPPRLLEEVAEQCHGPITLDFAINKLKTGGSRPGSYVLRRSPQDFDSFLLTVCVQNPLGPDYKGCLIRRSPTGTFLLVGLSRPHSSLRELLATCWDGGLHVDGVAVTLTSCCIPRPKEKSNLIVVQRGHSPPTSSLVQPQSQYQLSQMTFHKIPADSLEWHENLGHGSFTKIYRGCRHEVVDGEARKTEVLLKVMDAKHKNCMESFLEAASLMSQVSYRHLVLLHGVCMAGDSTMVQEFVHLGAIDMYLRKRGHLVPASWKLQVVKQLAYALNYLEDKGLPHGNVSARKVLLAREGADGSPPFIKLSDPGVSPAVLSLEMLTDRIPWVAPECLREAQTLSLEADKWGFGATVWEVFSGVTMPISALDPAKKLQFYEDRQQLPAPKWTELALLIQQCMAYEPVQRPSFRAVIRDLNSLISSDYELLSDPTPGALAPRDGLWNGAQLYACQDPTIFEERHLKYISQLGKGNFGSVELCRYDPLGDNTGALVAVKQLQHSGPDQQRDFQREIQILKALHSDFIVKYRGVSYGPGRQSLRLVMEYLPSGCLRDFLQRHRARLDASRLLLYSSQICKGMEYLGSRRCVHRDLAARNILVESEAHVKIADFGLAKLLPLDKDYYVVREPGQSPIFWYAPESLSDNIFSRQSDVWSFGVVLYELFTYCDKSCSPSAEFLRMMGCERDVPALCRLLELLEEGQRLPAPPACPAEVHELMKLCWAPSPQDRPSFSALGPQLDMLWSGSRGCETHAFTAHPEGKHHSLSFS

[4] = target: Non-receptor tyrosine-protein kinase TYK2 (Homo sapiens, UniProt P29597); experiment: Inhibition of recombinant TYK2 (unknown origin) by scintillation counting method
[5] = target: T3, Tyrosine-protein kinase JAK2 (Homo sapiens, UniProt O60674); experiment: Inhibition of recombinant JAK2 (unknown origin) using 5-FAM-KKKKEEIYFFFG-OH substrate and ATP incubated for 180 mins by […] method
[6] = target: T3, Tyrosine-protein kinase JAK2; experiment: Inhibition of JAK2 in human SET2 cells assessed as reduction in STAT5 phosphorylation incubated for 2 hrs by Western blot method; type: cell-based
[7] = tested on: Rattus norvegicus; experiment: Toxicity in rat assessed as drug tolerability at 15 mg/kg/day for 2 weeks; type: organism-based; conditions: in vivo, 336 h
[8] = target: T4, Nuclear receptor subfamily 1 group I member 2 (Homo sapiens, UniProt O75469); experiment: Activation of PXR (unknown origin); type: ADME
T4 sequence (O75469 whole entry): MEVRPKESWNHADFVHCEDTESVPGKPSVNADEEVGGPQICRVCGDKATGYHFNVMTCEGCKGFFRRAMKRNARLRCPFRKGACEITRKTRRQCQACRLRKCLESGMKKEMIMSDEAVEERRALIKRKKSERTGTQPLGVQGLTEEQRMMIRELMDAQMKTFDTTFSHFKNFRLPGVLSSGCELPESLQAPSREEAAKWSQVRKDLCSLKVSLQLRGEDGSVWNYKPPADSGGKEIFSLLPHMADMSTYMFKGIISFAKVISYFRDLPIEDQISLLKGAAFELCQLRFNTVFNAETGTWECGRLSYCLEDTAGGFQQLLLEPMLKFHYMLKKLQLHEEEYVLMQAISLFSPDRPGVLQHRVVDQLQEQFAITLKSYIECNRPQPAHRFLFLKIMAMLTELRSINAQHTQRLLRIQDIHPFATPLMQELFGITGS

[9] = Half in mouse liver microsomes; type: ADME
[10] = target: T2, Tyrosine-protein kinase JAK3; experiment: Inhibition of recombinant JAK3 (unknown origin) using 5-FAM-KKKKEEIYFFFG-OH substrate and ATP incubated for 180 mins by […] method
[11] = AUC (0 to 8 hrs) in mouse pharamcodynamic model at 5 mg/kg, po; type: ADME, organism-based; set-up: dose 5 mg/kg, time < 8 hr, route oral; conditions: in vivo

T3 sequence (O60674 whole entry): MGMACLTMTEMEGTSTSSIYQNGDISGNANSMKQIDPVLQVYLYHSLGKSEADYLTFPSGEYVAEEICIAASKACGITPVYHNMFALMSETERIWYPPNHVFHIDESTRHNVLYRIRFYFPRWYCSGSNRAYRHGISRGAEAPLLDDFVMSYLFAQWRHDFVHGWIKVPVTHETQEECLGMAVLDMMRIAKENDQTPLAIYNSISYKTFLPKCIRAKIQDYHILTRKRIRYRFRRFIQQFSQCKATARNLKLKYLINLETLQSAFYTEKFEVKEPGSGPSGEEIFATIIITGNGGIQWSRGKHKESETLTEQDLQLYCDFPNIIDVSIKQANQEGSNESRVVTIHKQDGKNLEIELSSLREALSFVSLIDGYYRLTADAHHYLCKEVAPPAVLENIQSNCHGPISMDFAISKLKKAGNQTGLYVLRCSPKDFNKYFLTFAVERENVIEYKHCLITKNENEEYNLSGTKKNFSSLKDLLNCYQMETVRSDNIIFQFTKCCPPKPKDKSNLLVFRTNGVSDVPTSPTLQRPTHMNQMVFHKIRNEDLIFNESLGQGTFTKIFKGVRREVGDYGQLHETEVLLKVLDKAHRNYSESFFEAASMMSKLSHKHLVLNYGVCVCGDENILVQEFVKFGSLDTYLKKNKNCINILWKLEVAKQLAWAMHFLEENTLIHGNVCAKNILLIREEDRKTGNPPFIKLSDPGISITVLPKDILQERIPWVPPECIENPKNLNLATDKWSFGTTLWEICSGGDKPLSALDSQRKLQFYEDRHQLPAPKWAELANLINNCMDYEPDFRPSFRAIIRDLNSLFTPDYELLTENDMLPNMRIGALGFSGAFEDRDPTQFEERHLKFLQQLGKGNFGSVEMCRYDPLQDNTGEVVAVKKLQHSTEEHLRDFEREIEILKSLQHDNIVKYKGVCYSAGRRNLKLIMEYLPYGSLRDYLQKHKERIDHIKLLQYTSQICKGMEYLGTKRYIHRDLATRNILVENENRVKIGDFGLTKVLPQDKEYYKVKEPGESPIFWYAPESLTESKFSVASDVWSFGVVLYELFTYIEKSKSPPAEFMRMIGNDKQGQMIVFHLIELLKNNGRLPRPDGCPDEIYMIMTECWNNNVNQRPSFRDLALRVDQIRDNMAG
Non-receptor tyrosine-protein kinase TYK2, sequence (P29597 whole entry): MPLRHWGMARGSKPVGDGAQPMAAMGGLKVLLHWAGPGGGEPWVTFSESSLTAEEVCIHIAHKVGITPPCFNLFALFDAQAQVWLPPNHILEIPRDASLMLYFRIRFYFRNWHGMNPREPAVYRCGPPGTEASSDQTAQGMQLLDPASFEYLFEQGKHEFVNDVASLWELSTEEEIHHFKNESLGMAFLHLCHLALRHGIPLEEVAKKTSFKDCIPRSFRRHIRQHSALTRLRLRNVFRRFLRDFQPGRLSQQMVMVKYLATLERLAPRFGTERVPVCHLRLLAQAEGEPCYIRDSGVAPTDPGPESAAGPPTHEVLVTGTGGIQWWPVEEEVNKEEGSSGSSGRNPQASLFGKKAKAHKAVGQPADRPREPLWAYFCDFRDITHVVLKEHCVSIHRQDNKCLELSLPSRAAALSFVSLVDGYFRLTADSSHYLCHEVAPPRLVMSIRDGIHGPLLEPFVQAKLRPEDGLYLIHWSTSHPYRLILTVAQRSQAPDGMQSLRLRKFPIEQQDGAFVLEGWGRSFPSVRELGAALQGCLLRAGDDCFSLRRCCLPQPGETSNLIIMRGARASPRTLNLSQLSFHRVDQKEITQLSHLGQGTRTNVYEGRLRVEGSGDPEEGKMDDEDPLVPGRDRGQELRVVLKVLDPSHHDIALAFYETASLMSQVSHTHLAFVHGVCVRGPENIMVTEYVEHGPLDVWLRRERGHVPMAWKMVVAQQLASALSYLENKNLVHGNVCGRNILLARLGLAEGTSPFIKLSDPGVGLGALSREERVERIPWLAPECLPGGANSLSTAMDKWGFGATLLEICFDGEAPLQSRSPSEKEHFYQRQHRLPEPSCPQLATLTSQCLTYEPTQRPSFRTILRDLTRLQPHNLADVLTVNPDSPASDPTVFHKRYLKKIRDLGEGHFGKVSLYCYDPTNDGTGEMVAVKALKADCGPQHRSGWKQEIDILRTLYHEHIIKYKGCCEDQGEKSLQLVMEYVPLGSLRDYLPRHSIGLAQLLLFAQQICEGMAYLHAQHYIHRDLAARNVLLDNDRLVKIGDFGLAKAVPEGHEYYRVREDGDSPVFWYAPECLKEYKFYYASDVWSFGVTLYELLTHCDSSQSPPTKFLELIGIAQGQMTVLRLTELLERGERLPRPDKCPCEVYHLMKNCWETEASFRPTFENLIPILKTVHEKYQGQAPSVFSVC

**Q.** Which Activity [1] does the source give for `CCn1c(C(=O)N(C2CC2)C2CC2)cc2c3c(ncn3C)c(Nc3cc(C)n(C)n3)nc21` [BMS-911543] here?
**A.** The Activity was “Active”.

**Q.** What about the IC50 [2] of the same molecule?
**A.** Its IC50 is 1000 nM.

**Q.** And the Kd [3]?
**A.** The Kd was 360 nM.

**Q.** What about the IC50 [4] of the same molecule?
**A.** Its IC50 is 66 nM.

**Q.** And the IC50 [5]?
**A.** The IC50 was 1.1 nM.

**Q.** What about the IC50 [6] of the same molecule?
**A.** The IC50 was 80 nM.

**Q.** And the Activity [7]?
**A.** The Activity was “Non-toxic”.

**Q.** What about the EC50 [8] of the same molecule?
**A.** The EC50 was over 50000 nM.

**Q.** And the half-life [9]?
**A.** The half-life was 1.8 h.

**Q.** What about the IC50 [10] of the same molecule?
**A.** The IC50 was 360 nM.

**Q.** And the AUC(0-t) at 8 h [11]?
**A.** The AUC(0-t) at 8 h was 23 µM·h.
